From US20220241207A1, “EXTENDED-RELEASE SOLID ORAL DOSAGE FORM COMPRISING VITAMIN B12 AND A VITAMIN B12 DEPLETING DRUG” (DSM IP ASSETS B.V., priority 2019, published 2022)

Experimental: The solubilization medium was: • SIF (simulated intestinal fluid, pH=6.8, prepared according to Ph. Eur.)
The dissolution medium was heated to 37° C. and the analyses were performed at this temperature. During the analyses, the salts were added in access to the solubilization media and left to mix for 24 h. Afterwards, the solutions were filtered, and the precipitates were investigated using ATR-IR analysis to confirm the presence of the starting material (e.g. respective Ca salt). Attenuated total reflection (ATR) is a sampling technique used in conjunction with infrared spectroscopy which enables samples to be examined directly in the solid or liquid state without further preparation. The filtered solutions were analysed for Ca^2+ ions content.

Ca^2+ ions average: 0.028 mg/mL | solubility average (pH 6.8): 90 µg/mL
Substance: dicalciumphosphat anhydrous [dicalcium phosphate anhydrous]
